# Measured values: patent US11471462B2, “Compositions and methods for detecting and treating diabetes” (THE BROAD INSTITUTE, INC., priority 2016, dated 2022)
# Key:
# SLC16A11 [1] = assay: Compound treatment, SLC16A11 expression by ddPCR in SNU761 cells; format: cell-based, human; conditions: SNU761 cells; same doses and treatment times as in the LINCS dataset
# Procedure: A small number of the compounds that made the strongest positive connections to the SLC16A11 gene expression signature were selected and tested. […] Methotrexate was also included, which had been annotated as a dihydrofolate reductase inhibitor. SNU761 cells (derived from a human hepatocellular carcinoma) and NCIH716 cells (derived from a human cecum adenocarcinoma), which both express SLC16A11, were treated with the compounds. The same compound concentrations and treatment times were used as in the LINCS dataset experiments. […] For normalization, a different housekeeper gene, HPRT1, was used and obtained similar results with the mTOR inhibitors (FIGS. 14A and 14B).
# From the total list of compounds, 59 readily available compounds were selected from the 79 compounds with the largest connectivity scores to the query signature and 20 middle compounds with connectivity scores centered on 0 (FIG. 15A) and then treated SNU761 cells at the same doses and treatment times as were used in the LINCS dataset. It was expected that the top compounds would be enriched for compounds that increased SLC16A11 expression. […] The results were aligned with the expectations (FIG. 15B). Hierarchical clustering of the SLC16 expression profiles generated by the compound treatments are shown by the heat map in FIG. 15C.
# SNU761 (human hepatocellular carcinoma) and NCIH716 (human cecum adenocarcinoma) were cultured in RPMI Medium 1640 supplemented with 10% Fetal Bovine Serum (FBS), 100 μg/ml Streptomycin and 100 U/ml Penicillin. Cells were grown in a humidified CO2 incubator, at 37° C.
# For the unbiased approach taken to investigate the compounds that connected to the SLC16A11 gene expression signature, compounds were obtained from compound management at the Broad Institute.
# SNU761 and NCIH716 cells were plated into 96 well plates at a density of 20,000 cells per well. Hepatocytes were plated into collagen coated 96 well plates (Corning, 354408) at a density of 50,000 cells per well. After 24 hours, cells were treated with compounds at a final concentration of 10 μM or vehicle control for the appropriate amount of time.
# At the time of collection, cells in 96 well plates were lysed by directly adding 50 μL of RLT buffer (Qiagen). 75 μL of AMPure XP beads, diluted by a factor of 5 in polyethylene glycol, were then added to bind nucleic acids. One wash with polyethylene glycol was then performed. DNase treatment (Qiagen) was carried out according to the manufacturer's protocol in a final volume of 50 μL. 100 μL of polyethylene glycol was added after the DNase treatment to crowd nucleic acids back onto the beads. Two washes with 80% ethanol were performed and residual ethanol was removed. RNA was then eluted in water.
# RNA was DNase treated and converted into cDNA using the High-Capacity RNA-to-cDNA kit (Thermo Fisher Scientific). The following FAM-labeled TaqMan Real-Time PCR assays (Thermo Fisher Scientific) were used to quantify gene expression: SLC16A11 (Hs00601062_g1), SLC16A13 (Hs00416832_m1), SLC16A1 (Hs01560299_m1). The VIC-labeled TaqMan Real-Time assays TBP (Hs00427620_m1) or HPRT1 (Hs02800695_m1) were used for normalization. Droplets were generated and analyzed using a QX200 Droplet Generator and Reader system (BioRad). Data was extracted using QuantaSoft (BioRad) and analyzed using Microsoft Excel.
# SLC16A11 [2] = assay: CRISPR (SAM) transactivation assay, SLC16A11 expression in 293T cells; format: cell-based, human; conditions: Cas9-based transactivators (SAM) targeted near variant
# Text: These experiments are based upon Cas9 based transactivators (SAM or synergistic activation mediators) as described in Konermann et al (Nature 517: 583-588, 2015). Similar experiments based on other types of transactivators that are more finely tuned to distal activation such as those described in Hilton et al. (Nature 33:510-518, 2015) could also be envisioned. Cas9 was used to target transactivators to sites near individual variants in the credible set. Their ability to activate SLC16A11 gene expression was assessed (Table 10).
# Cell lines derived from HEK293-T cells were established by lentivirus infection resulting in stable integration of two components of the SAM system namely dCas9-VP64 and MS2-p65-HSF1. The resulting stable cell lines were then plated into 96 well plates and left overnight. The next day, cells were transfected with the guide RNAs (pHKO23), the final component of the SAM system. After an additional 48 hours, cells were harvested for gene expression analyses.
Compound,"avg_fc (SLC16A11 expression, compound treated vs DMSO treated cells) (SLC16A11 [1])",Increases SLC16A11 transcript levels in transactivator assay (SLC16A11 [2])
CCCS(=O)(=O)Nc1ccc(F)c(C(=O)c2c[nH]c3ncc(-c4ccc(Cl)cc4)cc23)c1F [vemurafenib],1.368,
Nc1ccn([C@H]2CC[C@@H](CO)O2)c(=O)n1 [zalcitabine],1.01,
ACGGAAACTGGCGCGCTCCA (chemistry not given here),,TRUE
CTATTTCCACGCGTTGGCGG (chemistry not given here),,TRUE
GCGGGATTTAGGCATTGTTG (chemistry not given here),,TRUE
GGCTGCGTGTTAGTGGCTTC (chemistry not given here),,TRUE
GTACATAATTCAATCCCCGT (chemistry not given here),,TRUE
TCACGCGCGGCTTGCCGGAT (chemistry not given here),,TRUE
TGGCAGTCCCCGCGTCACGT (chemistry not given here),,TRUE
TGGCTCTGGGTGCTGAAACG (chemistry not given here),,TRUE
TGTTCTCAGGAACGTTGCCG (chemistry not given here),,TRUE
TTACAGGCTTGCACCGCGCC (chemistry not given here),,TRUE
bisindolylmaleimide,0.4265,
"rs191133 (guide 1 TGAAAGTAAGTCAATCATGG; guide 2 ATGATTGACTTACTTTCATC; listed as DNA, chemistry not given here; listed as Homo sapiens)",,FALSE
"rs193399 (guide 1 TAGAACCAGCTTCTAGGTTC; guide 2 TCCTTCCTGAACCTAGAAGC; listed as DNA, chemistry not given here; listed as Homo sapiens)",,FALSE
"rs312457 (guide 1 TGATGAAACCTGGCCGGGCA; guide 2 GTGAGCCACCGTGCCCGGCC; listed as DNA, chemistry not given here; listed as Homo sapiens)",,FALSE
"rs1698227 (guide 1 TGGTGCTAAGGGGCACACAC; guide 2 TGCTCATTTTCCTCTGCACT; listed as DNA, chemistry not given here; listed as Homo sapiens)",,FALSE
"rs2292351 (guide 1 AGCCTCTGGCTGCTCGCCCG; guide 2 CACCCCGGGCGAGCAGCCAG; listed as DNA, chemistry not given here; listed as Homo sapiens)",,TRUE
"rs4630597 (guide 1 GGTGCCTCAGATACCTGGTT; guide 2 AACCAGGTATCTGAGGCACC; listed as DNA, chemistry not given here; listed as Homo sapiens)",,FALSE
"rs17203120 (guide 1 CTTATTTGATTTTATCTCAA; guide 2 TTATTTGATTTTATCTCAAA; listed as DNA, chemistry not given here; listed as Homo sapiens)",,FALSE
"rs17203148 (guide 1 TCTGCCAATCTTGGCTCTGT; guide 2 GAAACCTACAGAGCCAAGAT; listed as DNA, chemistry not given here; listed as Homo sapiens)",,FALSE
"rs58223766 (guide 1 TCAGGAGTTCGAGACCATCC; guide 2 GATCCACCCCCCCCCCCCCT; listed as DNA, chemistry not given here; listed as Homo sapiens)",,FALSE
"rs73239895 (guide 1 ACTCCTGCCGGAGGTTCTCG; guide 2 AGGCCCCGAGAACCTCCGGC; listed as DNA, chemistry not given here; listed as Homo sapiens)",,FALSE
"rs74577409 (guide 1 ACCTGCCGCCTGCTGCGCGC; guide 2 CCCTGCGCGCAGCAGGCGGC; listed as DNA, chemistry not given here; listed as Homo sapiens)",,TRUE
"rs75075014 (guide 1 GGAAGTGGAGGAGAGTGTCC; guide 2 GGAGTCATGCCTGGAAGTGG; listed as DNA, chemistry not given here; listed as Homo sapiens)",,FALSE
"rs77552976 (guide 1 GAAAGGGCTGCCGTGCTGTT; guide 2 CCTGGCTGGACCTAACAGCA; listed as DNA, chemistry not given here; listed as Homo sapiens)",,FALSE
"rs78972129 (guide 1 GATGCTATGGTTGGCCACGC; guide 2 AGTACAGTACACAGCCTGCG; listed as DNA, chemistry not given here; listed as Homo sapiens)",,FALSE
"rs145952323 (guide 1 CAAAAATTAGCCGGGTGTGT; guide 2 CAGGCACACGCCAACACACC; listed as DNA, chemistry not given here; listed as Homo sapiens)",,FALSE
"rs186568031 (guide 1 GATTTTCACTCTTGTTGCCC; guide 2 TTCACTCTTGTTGCCCAGGC; listed as DNA, chemistry not given here; listed as Homo sapiens)",,FALSE
